Results on one molecule are retold here after patent US9440930B2, “Substituted bicyclic dihydropyrimidinones and their use as inhibitors of neutrophil elastase activity” (Boehringer Ingelheim International GmbH, priority 2014, dated 2016).

Broadly, the EC50 is the concentration needed to bring the measured effect to its halfway point. Read a low EC50 as higher potency in that assay. As usually defined, the solubility is the dissolved amount per volume that the medium holds. For orientation: IC50 means the concentration at which inhibition is half-maximal. Higher therefore signals lower potency.

Converted amounts (≈) assume the structure as drawn. A value given as a limit tells only on which side of the number the result lay.

The target of series [1] is T1, neutrophil elastase in human plasma (Homo sapiens, UniProt P08246).
T1 construct: The stimulated blood is centrifuged to generate the neutrophil elastase enriched plasma; from tissue; host or cells: plasma from zymosan-stimulated citrated whole blood of healthy human donors
T1 sequence (P08246 30-267): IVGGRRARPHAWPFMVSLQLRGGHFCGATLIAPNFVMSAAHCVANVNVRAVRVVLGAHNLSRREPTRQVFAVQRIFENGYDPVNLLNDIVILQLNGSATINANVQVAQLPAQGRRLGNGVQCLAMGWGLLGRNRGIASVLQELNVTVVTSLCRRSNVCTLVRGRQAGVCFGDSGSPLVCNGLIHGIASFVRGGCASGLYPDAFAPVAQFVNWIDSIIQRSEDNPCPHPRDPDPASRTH
Kind of series: Neutrophil elastase inhibitory activity in human plasma. Format: biochemical. Particulars: zymosan-stimulated human plasma, substrate MeOSuc-Ala-Ala-Pro-Val-AMC 250 μM. As to the method: Assay for the Determination of Neutrophil Elastase Inhibitory Activity in Human Plasma
Citrated blood from human healthy donors is mixed with zymosan suspension and incubated at room temperature. This leads to the stimulation of neutrophils and the release of neutrophil elastase into the plasma. The stimulated blood is centrifuged to generate the neutrophil elastase enriched plasma.
• A single 45 ml blood sample is taken into a 50 ml tube containing citrate (3.13%, 5 mL) and the tube is gently inverted 4 times. • Immediately after blood sampling, zymosan working solution (5 mL) is added. • After the addition of zymosan working solution, the tubes are capped, mixed gently and incubated at 22° C. for 15 min on a shaker at 20 rpm. • Make 10 ml aliquots after the incubation time. • Centrifuge the 15 ml tubes at 800 g for 15 min at 4° C. in a Jouan centrifuge. • Harvest the plasma and make 1-5 ml aliquots. • Store the plasma at −80° C.
A dose response curve is generated to calculate the EC50 of the inhibitor. The analysis of the data is performed by the calculation of the percentage of fluorescence in the presence of the test compound compared to the fluorescence of the vehicle control after subtracting the background fluorescence: An inhibitor of the neutrophil elastase enzyme will give values between 100% control (no inhibition) and 0% control (complete inhibition).

Series [2] can be described thus: Metabolic stability with human liver microsomes. Format: in vitro ADME. Particulars: pooled human liver microsomes, pH 7.6; human liver microsomes 1 mg/ml, 1 μM compound, 37° C., NADPH; read-out: t1/2 INVITRO. On the technique in general: Microsomes from liver hold many membrane-bound enzymes, among them those of drug oxidation.
For the next series, the system named is human hepatocytes. In words: Metabolic stability with human hepatocytes. Format: in vitro ADME. Particulars: human hepatocyte suspension, 1 μM compound, well stirred model. On the procedure: Assay for the Determination of Metabolic Stability with Human Hepatocytes
The metabolic degradation of the test compound is assayed in a human hepatocyte suspension. Human hepatocytes (typically cryopreserved) are incubated in an appropriate buffer system (e.g. Dulbecco's modified eagle medium plus 3.5 μg glucagon/500 mL, 2.5 mg insulin/500 mL and 3.75 mg/500 mL hydrocortison) containing 5% species serum. Following a (typically) 30 min preincubation in an incubator (37° C., 10% CO2), 5 μl of test compound solution (80 μM; from 2 min stock solution in DMSO diluted 1:25 with medium) are added into 395 μl hepatocyte suspension (cell density in the range 0.25-5*10^6 cells/mL, typically 1*10^6 cells/mL; final concentration of test compound 1 μM, final DMSO concentration 0.05%). The cells are incubated for six hours (incubator, orbital shaker) and samples (25 μl) are taken at 0, 0.5, 1, 2, 4 and 6 hours. Samples are transferred into acetonitrile and pelleted by centrifugation (5 min). The supernatant is transferred to a new 96-deepwell plate, evaporated under nitrogen and resuspended. The decline of parent compound is analyzed by LC-MS/MS. […]

The next series in a line: Aqueous solubility. Particulars: McIlvaine buffer pH 6.8 containing 2.5% DMSO, kinetic from dmso stock, McIlvaine buffer pH 6.8, 2.5% DMSO, 24 h shaking. It counts as physicochemical. As to the method:
Assay for Determination of Aqueous Solubility
Starting from a 10 min DMSO stock solution, aliquots are diluted with acetonitrile/water (1/1) and McIlvaine buffer pH 6.8, respectively. After 24 h of shaking, the solutions or suspensions are filtered and analyzed by LC-UV. The amount dissolved in buffer is compared to the amount dissolved in the acetonitrile/water (1/1) solution. Solubility is measured from 0.001 to 0.125 mg/ml at a DMSO concentration of 2.5%. If more than 90% of the compound is dissolved in buffer, the value is marked with “>”.

The next series addresses T2, cytochrome P450 2C9 (Homo sapiens, UniProt P11712).
T2 construct: is assayed at 37° C. with human liver microsomes; from tissue; host or cells: human liver microsomes
In words: Cytochrome P450 2C9 inhibition. Format: in vitro ADME. The note with it: human liver microsomes, Diclofenac hydroxylation. The source says: Assay for Determination of Cytochrome P450 2C9 Inhibition

The next series addresses T3, cytochrome P450 2C19 (Homo sapiens, UniProt P33261).
T3 construct: is assayed at 37° C. with human liver microsomes; from tissue; host or cells: human liver microsomes
In words: Cytochrome P450 2C19 inhibition. Format: in vitro ADME. Particulars: human liver microsomes, (S)-Mephenytoin hydroxylation. The text has this:
Assay for Determination of Cytochrome P450 2C19 Inhibition

The target of the next series is T4, cytochrome P450 2C8 (Homo sapiens, UniProt P10632).
T4 construct: is assayed at 37° C. with human liver microsomes; from tissue; host or cells: human liver microsomes
T4 sequence (P10632 1-490): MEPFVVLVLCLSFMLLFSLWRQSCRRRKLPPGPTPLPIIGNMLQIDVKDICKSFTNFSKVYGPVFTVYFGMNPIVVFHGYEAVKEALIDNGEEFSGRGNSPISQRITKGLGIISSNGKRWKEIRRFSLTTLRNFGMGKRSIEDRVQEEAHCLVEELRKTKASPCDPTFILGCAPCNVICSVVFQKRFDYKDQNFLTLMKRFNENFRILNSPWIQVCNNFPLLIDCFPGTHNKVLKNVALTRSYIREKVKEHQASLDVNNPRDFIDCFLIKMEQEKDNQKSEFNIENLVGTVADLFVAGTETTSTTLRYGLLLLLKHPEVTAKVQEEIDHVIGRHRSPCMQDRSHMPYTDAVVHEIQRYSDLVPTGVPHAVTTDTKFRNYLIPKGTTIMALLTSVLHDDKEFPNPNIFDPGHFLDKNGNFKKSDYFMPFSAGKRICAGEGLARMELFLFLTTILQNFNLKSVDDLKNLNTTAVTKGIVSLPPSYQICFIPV
In words: Cytochrome P450 2C8 inhibition. Format: in vitro ADME. Particulars: human liver microsomes, Amodiaquine deethylation. The source says:
Assay for Determination of Cytochrome P450 2C8 Inhibition

T3 sequence (P33261 whole entry): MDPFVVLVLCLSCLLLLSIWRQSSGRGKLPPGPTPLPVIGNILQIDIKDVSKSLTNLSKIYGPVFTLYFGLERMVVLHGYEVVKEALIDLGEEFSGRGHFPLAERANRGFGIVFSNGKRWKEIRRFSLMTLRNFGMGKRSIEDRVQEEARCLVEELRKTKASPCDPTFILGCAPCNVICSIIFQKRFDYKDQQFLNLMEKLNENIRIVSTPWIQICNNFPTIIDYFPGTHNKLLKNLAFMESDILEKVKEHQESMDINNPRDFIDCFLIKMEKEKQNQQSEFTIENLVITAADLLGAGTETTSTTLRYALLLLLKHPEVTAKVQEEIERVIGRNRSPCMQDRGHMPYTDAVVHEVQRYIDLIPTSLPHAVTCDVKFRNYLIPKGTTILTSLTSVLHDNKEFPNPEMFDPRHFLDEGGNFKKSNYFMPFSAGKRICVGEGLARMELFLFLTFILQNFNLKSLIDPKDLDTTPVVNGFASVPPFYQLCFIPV
T2 sequence (P11712 whole entry): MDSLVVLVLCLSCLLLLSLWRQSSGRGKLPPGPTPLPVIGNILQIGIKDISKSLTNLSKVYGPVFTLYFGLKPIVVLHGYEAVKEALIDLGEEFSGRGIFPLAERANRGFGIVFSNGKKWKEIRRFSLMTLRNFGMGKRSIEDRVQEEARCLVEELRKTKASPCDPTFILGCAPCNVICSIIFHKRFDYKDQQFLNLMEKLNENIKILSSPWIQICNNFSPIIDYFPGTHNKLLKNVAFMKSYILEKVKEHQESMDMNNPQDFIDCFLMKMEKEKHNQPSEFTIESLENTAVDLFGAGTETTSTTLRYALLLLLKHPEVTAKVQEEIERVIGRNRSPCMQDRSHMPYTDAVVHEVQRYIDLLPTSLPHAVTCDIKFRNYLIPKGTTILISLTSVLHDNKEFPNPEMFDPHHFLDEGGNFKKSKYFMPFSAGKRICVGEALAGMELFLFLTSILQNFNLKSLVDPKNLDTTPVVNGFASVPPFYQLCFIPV

On to `CN1C(=O)N(c2cccc(C(F)(F)F)c2)C2=C(C(=O)CCC2)[C@H]1c1ccc(C#N)cc1[S+](C)[O-]` (single isomer, unassigned) [Example 2.2A, 3-Methanesulfinyl-4-[3-methyl-2,5-dioxo-1-(3-trifluoromethyl-phenyl)-1,2,3,4,5,6,7,8-octahydro-quinazolin-4-yl]-benzonitrile], for which the EC50 in series [1] stood at 0.001 µM. In series [2], the half-life at 1 μM is over 2.17 h. Besides, the “predicted hepatic in vivo blood clearance” value in the series on human hepatocytes was 5 % human hepatic blood flow. The molecule further displayed a solubility at 24 h in the series “Aqueous solubility” of 55 µg/mL (≈ 113 µM). The IC50 at cytochrome P450 2C9, against cytochrome P450 2C19 and against cytochrome P450 2C8 was over 50 µM throughout.
